Test results as given in patent US9249129B2, “Morpholino substituted urea derivatives as mTOR inhibitors” (CELLZOME LIMITED, priority 2010, dated 2016).

What was measured:
Assay in all cases: kinobeads assay with mass spectrometry detection of kinases (kinase selectivity profile)
Assay type in all cases: binding
[1] = molecular target: T1, kinases (kinome) (Homo sapiens, UniProt O96013); conditions: PAK4 (STE), IPI00014068
T1 construct: determined in kinobeads assays with mass spectrometry detection of kinases as described previously; endogenous in cells; host or cells: cell lysate
T1 sequence (O96013 whole entry): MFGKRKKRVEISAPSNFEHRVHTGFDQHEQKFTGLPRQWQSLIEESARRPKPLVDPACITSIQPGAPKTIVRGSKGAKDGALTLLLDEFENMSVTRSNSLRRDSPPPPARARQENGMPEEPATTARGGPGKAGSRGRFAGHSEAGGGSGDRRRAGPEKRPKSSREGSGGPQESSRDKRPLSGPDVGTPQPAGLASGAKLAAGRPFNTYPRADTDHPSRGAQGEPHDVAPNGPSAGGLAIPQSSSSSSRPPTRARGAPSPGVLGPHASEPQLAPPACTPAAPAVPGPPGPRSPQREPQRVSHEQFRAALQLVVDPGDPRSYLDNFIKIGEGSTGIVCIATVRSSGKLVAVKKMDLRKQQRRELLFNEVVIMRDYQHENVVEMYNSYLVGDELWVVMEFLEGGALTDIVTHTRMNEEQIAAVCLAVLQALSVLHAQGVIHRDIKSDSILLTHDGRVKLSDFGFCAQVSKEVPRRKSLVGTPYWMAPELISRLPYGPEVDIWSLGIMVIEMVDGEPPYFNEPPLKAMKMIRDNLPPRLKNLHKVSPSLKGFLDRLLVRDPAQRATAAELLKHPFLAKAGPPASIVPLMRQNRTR
Description: (§1) The protein kinase complement of the human genome (the kinome) was described previously (Manning et al., 2002. Science 298(5600):1912-1934). Sequence accession numbers are defined by the International Protein Index (IPI) (Kersey et al., 2004. Proteomics 4(7):1985-1988).

[2] = molecular target: T2, kinases (kinome) (Homo sapiens, UniProt P16591); conditions: FER (TK), IPI00029263
T2 construct: determined in kinobeads assays with mass spectrometry detection of kinases as described previously; endogenous in cells; host or cells: cell lysate
Description: as §1

[3] = molecular target: T3, kinases (kinome) (Homo sapiens, UniProt P42336); conditions: PIK3Ca (Lipid Kinase), IPI00031386
T3 construct: determined in kinobeads assays with mass spectrometry detection of kinases as described previously; endogenous in cells; host or cells: cell lysate
Description: as §1

[4] = molecular target: T4, kinases (kinome) (Homo sapiens, UniProt P42680); conditions: TEC (TK), IPI00000878
T4 construct: determined in kinobeads assays with mass spectrometry detection of kinases as described previously; endogenous in cells; host or cells: cell lysate
T4 sequence (P42680 1-631): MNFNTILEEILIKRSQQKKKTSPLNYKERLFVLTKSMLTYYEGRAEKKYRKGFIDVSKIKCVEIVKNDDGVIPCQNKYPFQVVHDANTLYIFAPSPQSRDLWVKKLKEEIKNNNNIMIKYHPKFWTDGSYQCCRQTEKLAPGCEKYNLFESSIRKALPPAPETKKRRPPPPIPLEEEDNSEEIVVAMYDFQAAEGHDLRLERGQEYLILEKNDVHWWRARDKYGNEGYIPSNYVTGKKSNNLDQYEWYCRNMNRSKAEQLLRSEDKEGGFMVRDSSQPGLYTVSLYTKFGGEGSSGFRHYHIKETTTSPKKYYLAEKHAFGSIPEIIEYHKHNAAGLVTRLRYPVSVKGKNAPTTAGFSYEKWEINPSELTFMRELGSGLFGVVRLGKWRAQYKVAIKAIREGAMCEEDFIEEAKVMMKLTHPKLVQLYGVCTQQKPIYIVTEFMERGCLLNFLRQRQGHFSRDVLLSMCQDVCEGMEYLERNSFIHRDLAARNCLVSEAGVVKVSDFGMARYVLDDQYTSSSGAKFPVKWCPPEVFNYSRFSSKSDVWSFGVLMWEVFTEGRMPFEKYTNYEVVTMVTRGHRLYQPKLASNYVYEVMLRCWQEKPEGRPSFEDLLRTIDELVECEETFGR
Description: as §1

[5] = molecular target: T5, kinases (kinome) (Homo sapiens, UniProt P42684); conditions: ARG (TK), IPI00329488
T5 construct: determined in kinobeads assays with mass spectrometry detection of kinases as described previously; endogenous in cells; host or cells: cell lysate
T5 sequence (P42684 whole entry): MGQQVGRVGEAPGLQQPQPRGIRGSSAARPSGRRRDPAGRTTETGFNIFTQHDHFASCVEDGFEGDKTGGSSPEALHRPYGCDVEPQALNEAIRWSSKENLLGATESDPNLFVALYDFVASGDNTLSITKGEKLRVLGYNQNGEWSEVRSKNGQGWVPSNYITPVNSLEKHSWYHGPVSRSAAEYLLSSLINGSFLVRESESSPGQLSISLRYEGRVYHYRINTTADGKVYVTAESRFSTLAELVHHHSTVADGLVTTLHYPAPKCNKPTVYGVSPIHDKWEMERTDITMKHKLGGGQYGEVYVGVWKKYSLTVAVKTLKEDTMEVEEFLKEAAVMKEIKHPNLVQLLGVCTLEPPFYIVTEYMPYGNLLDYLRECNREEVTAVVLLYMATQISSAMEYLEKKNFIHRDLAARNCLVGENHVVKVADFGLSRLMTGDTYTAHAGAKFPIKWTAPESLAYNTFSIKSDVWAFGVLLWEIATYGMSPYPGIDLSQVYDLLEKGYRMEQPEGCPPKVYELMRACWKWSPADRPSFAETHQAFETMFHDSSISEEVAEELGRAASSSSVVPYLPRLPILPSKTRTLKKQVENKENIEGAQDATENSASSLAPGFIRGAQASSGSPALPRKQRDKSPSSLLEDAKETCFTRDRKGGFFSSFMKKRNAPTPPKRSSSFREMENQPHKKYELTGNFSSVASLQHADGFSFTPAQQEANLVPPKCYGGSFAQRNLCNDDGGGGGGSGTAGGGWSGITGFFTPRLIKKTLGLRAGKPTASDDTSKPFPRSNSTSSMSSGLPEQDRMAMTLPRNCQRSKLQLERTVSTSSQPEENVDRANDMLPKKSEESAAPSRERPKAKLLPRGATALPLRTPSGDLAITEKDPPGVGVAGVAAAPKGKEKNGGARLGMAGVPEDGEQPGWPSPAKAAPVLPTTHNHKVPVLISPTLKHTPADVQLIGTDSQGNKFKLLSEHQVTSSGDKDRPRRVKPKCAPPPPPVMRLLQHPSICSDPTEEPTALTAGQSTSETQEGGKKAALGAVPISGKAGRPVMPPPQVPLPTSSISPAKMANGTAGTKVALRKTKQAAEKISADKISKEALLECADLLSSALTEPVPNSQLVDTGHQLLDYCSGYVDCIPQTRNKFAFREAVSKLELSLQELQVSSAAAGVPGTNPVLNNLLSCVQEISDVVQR
Description: as §1

[6] = molecular target: T6, kinases (kinome) (Homo sapiens, UniProt P45984); conditions: JNK2 (CMGC), IPI00303550
T6 construct: determined in kinobeads assays with mass spectrometry detection of kinases as described previously; endogenous in cells; host or cells: cell lysate
T6 sequence (P45984 whole entry): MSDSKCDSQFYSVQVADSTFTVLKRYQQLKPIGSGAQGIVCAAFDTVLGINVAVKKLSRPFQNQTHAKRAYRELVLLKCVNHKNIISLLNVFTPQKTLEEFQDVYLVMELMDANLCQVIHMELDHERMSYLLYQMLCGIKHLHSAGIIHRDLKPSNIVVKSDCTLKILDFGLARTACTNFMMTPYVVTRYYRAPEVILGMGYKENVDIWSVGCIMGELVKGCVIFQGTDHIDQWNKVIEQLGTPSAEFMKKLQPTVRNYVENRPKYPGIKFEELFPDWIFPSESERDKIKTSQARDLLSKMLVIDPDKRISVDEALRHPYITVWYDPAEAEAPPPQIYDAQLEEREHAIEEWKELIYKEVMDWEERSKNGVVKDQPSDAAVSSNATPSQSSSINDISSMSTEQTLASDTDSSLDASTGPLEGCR
Description: as §1

[7] = molecular target: T7, kinases (kinome) (Homo sapiens, UniProt P49841); conditions: GSK3B (CMGC), IPI00216190
T7 construct: determined in kinobeads assays with mass spectrometry detection of kinases as described previously; endogenous in cells; host or cells: cell lysate
T7 sequence (P49841 whole entry): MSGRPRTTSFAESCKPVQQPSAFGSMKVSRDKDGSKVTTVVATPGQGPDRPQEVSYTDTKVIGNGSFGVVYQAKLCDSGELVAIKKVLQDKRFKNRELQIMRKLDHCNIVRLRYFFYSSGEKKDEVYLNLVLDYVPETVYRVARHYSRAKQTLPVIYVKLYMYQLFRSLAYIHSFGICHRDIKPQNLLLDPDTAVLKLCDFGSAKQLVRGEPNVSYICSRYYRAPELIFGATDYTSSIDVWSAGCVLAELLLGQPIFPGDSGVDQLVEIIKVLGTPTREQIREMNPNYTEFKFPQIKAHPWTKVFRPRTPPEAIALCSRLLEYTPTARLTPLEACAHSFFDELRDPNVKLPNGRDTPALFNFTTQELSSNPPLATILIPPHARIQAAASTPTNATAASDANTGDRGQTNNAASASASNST
Description: as §1

[8] = molecular target: T8, kinases (kinome) (Homo sapiens, UniProt P68400); conditions: CK2a1 (Other), IPI00016613
T8 construct: determined in kinobeads assays with mass spectrometry detection of kinases as described previously; endogenous in cells; host or cells: cell lysate
T8 sequence (P68400 whole entry): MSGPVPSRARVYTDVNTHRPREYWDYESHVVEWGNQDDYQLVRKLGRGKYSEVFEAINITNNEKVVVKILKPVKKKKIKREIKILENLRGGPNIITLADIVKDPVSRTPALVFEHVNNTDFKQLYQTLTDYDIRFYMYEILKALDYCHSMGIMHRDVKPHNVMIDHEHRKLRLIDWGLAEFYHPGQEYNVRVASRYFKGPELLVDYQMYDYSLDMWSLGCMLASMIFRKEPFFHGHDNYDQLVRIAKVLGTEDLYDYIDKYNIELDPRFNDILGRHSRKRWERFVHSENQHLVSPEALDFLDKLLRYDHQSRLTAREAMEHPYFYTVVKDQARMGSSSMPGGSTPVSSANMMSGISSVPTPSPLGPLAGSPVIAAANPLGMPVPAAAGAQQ
Description: as §1

[9] = molecular target: T9, kinases (kinome) (Homo sapiens, UniProt Q06187); conditions: BTK (TK), IPI00029132
T9 construct: determined in kinobeads assays with mass spectrometry detection of kinases as described previously; endogenous in cells; host or cells: cell lysate
Description: as §1

[10] = molecular target: T10, kinases (kinome) (Homo sapiens, UniProt Q13131); conditions: AMPKa1 (CAMK), IPI00410287
T10 construct: determined in kinobeads assays with mass spectrometry detection of kinases as described previously; endogenous in cells; host or cells: cell lysate
T10 sequence (Q13131 whole entry): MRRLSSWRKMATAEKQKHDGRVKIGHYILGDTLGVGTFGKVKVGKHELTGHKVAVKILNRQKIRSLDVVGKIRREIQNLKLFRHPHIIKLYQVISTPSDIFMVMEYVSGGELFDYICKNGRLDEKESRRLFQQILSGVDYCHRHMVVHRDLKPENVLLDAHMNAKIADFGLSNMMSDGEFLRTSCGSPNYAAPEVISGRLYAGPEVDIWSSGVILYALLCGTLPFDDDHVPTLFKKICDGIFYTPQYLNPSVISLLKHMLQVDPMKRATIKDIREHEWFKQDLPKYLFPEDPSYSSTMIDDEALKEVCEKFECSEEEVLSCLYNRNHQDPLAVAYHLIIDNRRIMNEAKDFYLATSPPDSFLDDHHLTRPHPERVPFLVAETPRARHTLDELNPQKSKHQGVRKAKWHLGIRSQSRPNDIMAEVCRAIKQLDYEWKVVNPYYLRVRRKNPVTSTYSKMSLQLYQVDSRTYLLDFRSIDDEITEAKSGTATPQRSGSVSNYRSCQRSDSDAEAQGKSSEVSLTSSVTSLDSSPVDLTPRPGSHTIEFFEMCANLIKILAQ
Description: as §1

[11] = molecular target: T11, kinases (kinome) (Homo sapiens, UniProt Q13315); conditions: ATM (Atypical), IPI00298306
T11 construct: determined in kinobeads assays with mass spectrometry detection of kinases as described previously; endogenous in cells; host or cells: cell lysate
Description: as §1

[12] = molecular target: T12, kinases (kinome) (Homo sapiens, UniProt Q15059); conditions: BRD3 (Atypical), IPI00014266
T12 construct: determined in kinobeads assays with mass spectrometry detection of kinases as described previously; endogenous in cells; host or cells: cell lysate
Description: as §1

[13] = molecular target: T13, kinases (kinome) (Homo sapiens, UniProt Q16512); conditions: PKN1 (AGC), IPI00412672
T13 construct: determined in kinobeads assays with mass spectrometry detection of kinases as described previously; endogenous in cells; host or cells: cell lysate
T13 sequence (Q16512 whole entry): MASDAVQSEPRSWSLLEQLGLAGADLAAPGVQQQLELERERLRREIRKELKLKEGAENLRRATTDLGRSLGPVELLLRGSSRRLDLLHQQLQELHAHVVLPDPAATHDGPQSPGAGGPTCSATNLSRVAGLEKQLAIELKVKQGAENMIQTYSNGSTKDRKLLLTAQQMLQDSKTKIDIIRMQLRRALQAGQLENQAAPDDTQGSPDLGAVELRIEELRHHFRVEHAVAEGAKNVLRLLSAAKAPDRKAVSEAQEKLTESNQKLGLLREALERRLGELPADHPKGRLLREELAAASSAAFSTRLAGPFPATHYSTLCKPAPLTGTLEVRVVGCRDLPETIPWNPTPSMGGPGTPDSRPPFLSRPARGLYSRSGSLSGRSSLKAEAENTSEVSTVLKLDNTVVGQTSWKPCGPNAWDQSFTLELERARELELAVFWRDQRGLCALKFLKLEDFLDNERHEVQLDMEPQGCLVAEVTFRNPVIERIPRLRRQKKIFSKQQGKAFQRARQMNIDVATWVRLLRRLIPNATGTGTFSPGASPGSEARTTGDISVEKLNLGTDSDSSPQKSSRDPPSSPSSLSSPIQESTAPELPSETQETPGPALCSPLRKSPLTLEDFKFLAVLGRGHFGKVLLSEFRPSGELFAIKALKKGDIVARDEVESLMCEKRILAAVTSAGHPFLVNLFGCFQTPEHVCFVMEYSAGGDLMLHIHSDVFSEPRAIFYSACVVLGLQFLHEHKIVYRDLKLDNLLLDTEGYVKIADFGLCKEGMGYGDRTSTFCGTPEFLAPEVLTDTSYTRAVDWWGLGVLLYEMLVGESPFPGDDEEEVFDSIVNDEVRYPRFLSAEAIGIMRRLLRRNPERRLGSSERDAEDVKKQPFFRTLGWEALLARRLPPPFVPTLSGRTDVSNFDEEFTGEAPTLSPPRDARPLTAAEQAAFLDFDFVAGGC
Description: as §1

[14] = molecular target: T14, kinases (kinome) (Homo sapiens, UniProt Q96GD4); conditions: AurB (Other), IPI00796914
T14 construct: determined in kinobeads assays with mass spectrometry detection of kinases as described previously; endogenous in cells; host or cells: cell lysate
T14 sequence (Q96GD4 whole entry): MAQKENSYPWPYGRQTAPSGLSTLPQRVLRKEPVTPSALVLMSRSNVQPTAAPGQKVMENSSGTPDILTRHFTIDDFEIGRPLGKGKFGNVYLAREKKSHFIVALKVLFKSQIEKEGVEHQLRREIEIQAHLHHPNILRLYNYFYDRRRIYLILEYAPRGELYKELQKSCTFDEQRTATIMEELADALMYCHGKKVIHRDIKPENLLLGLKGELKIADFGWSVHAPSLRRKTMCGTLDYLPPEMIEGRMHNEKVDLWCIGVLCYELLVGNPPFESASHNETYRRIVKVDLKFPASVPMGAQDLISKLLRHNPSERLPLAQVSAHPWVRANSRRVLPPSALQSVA
Description: as §1

[15] = molecular target: T15, kinases (kinome) (Homo sapiens, UniProt Q9UBE8); conditions: NLK (CMGC), IPI00008237
T15 construct: determined in kinobeads assays with mass spectrometry detection of kinases as described previously; endogenous in cells; host or cells: cell lysate
T15 sequence (Q9UBE8 1-527): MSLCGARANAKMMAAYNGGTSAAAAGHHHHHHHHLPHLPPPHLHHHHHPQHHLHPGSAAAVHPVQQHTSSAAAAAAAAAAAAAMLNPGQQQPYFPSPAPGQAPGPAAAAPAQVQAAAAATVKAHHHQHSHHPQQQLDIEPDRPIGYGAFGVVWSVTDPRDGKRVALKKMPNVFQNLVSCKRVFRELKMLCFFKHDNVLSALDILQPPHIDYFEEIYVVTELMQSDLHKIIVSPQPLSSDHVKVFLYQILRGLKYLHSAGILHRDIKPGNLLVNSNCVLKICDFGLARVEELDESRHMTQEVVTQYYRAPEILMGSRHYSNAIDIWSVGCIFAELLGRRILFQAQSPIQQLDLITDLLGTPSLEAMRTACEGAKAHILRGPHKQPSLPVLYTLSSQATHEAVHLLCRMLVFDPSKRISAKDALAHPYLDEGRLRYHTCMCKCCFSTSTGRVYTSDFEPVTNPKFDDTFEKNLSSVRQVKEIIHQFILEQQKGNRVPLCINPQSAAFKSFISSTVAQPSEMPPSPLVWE
Description: as §1

Row | IC50 [1] | IC50 [2] | IC50 [3] | IC50 [4] | IC50 [5] | IC50 [6] | IC50 [7] | IC50 [8] | IC50 [9] | IC50 [10] | IC50 [11] | IC50 [12] | IC50 [13] | IC50 [14] | IC50 [15] | Compound
1 | > 10 µM | > 10 µM | > 10 µM | > 10 µM | > 10 µM | > 10 µM | > 10 µM | > 10 µM | > 10 µM | > 10 µM | > 10 µM | > 10 µM | > 10 µM | > 10 µM | > 10 µM | C[C@H]1COCCN1c1nc(-c2ccc(NC(=O)NC3CC3)cc2)cc(-c2cc(F)ccc2S(C)(=O)=O)n1 [Example 40, (S)-1-cyclopropyl-3-(4-(6-(5-fluoro-2-(methylsulfonyl)phenyl)-2-(3-methylmorpholino)pyrimidin-4-yl)phenyl)urea]
2 | > 10 µM | > 10 µM | > 10 µM | > 10 µM | > 10 µM | > 10 µM | > 10 µM | > 10 µM | > 10 µM | > 10 µM | > 10 µM | > 10 µM | > 10 µM | > 10 µM | > 10 µM | C[C@H]1COCCN1c1cc(-c2ccccc2S(C)(=O)=O)nc(-c2ccc(NC(=O)NC3CC3)cc2)n1 [Example 6, (S)-1-cyclopropyl-3-(4-(4-(3-methylmorpholino)-6-(2-(methylsulfonyl)phenyl)pyrimidin-2-yl)phenyl)urea]
3 | > 10 µM | > 10 µM | > 10 µM | > 10 µM | > 10 µM | > 10 µM | > 10 µM | > 10 µM | > 10 µM | > 10 µM | > 10 µM | > 10 µM | > 10 µM | > 10 µM | > 10 µM | CCNC(=O)Nc1ccc(-c2cc(-c3ccccc3C#N)nc(N3CCOC[C@@H]3C)n2)cc1 [Example 8, (S)-1-(4-(6-(2-cyanophenyl)-2-(3-methylmorpholino)pyrimidin-4-yl)phenyl)-3-ethylurea]
4 | > 10 µM | > 10 µM | > 10 µM | > 10 µM | > 10 µM | > 10 µM | > 10 µM | > 10 µM | > 10 µM | > 10 µM | > 10 µM | > 10 µM | > 10 µM | > 10 µM | > 10 µM | C[C@H]1COCCN1c1nc(-c2ccc(NC(=O)NC3CC3)cc2)cc(-c2cccnc2S(C)(=O)=O)n1 [Example 46, (S)-1-cyclopropyl-3-(4-(2-(3-methylmorpholino)-6-(2-(methylsulfonyl)pyridin-3-yl)pyrimidin-4-yl)phenyl)urea]
5 | > 10 µM | > 10 µM | > 10 µM | > 10 µM | > 10 µM | > 10 µM | > 10 µM | > 10 µM | > 10 µM | > 10 µM | > 10 µM | > 10 µM | > 10 µM | > 10 µM | > 10 µM | C[C@H]1COCCN1c1nc(-c2ccc(NC(=O)N[C@H]3CCC[C@@H]3O)cc2)cc(-c2cc(F)ccc2S(C)(=O)=O)n1 [Example 76, 1-(4-(6-(5-fluoro-2-(methylsulfonyl)phenyl)-2-((S)-3-methylmorpholino)pyrimidin-4-yl)phenyl)-3-((1S,2S)-2-hydroxycyclopentyl)urea]
6 | > 10 µM | > 10 µM | > 10 µM | > 10 µM | > 10 µM | > 10 µM | > 10 µM | > 10 µM | > 10 µM | > 10 µM | > 10 µM | > 10 µM | > 10 µM | > 10 µM | > 10 µM | C[C@H]1COCCN1c1cc(-c2ccccn2)nc(-c2ccc(NC(=O)NCCO)cc2)n1 [Example 43, (S)-1-(2-hydroxyethyl)-3-(4-(4-(3-methylmorpholino)-6-(pyridin-2-yl)pyrimidin-2-yl)phenyl)urea]
7 | > 10 µM | > 10 µM | > 10 µM | > 10 µM | > 10 µM | > 10 µM | > 10 µM | > 10 µM | > 10 µM | > 10 µM | > 10 µM | > 10 µM | > 10 µM | > 10 µM | > 10 µM | C[C@H]1COCCN1c1nc(-c2ccc(NC(=O)NC3CC3)cc2)cc(-c2ccccc2S(C)(=O)=O)n1 [Example 4, (S)-1-cyclopropyl-3-(4-(2-(3-methylmorpholino)-6-(2-(methylsulfonyl)phenyl)pyrimidin-4-yl)phenyl)urea]
